Measurements as given in article PMC11198769, “Enhancement of transcription efficiency by TAR-Tat system increases the functional expression of human olfactory receptors” (PLOS ONE, 2024).

Assays:
Test in all cases: Comprehensive analysis (screening) of hORs against n-hexanal
Type in all cases: cell-based
OR10A2 = biological target: T1, OR10A2 (Homo sapiens, UniProt Q9H208); conditions: OR10A2, 500 μM n-hexanal, with the TAR-Tat system (hOR/pHEK), n = 1
T1 construct: Lucy tag (N); expressed in transfected cells; host or cells: Flp-In T-REx-293 cells stably expressing RTP1S, Gαolf and Ric8-b
T1 sequence (Q9H208 1-303): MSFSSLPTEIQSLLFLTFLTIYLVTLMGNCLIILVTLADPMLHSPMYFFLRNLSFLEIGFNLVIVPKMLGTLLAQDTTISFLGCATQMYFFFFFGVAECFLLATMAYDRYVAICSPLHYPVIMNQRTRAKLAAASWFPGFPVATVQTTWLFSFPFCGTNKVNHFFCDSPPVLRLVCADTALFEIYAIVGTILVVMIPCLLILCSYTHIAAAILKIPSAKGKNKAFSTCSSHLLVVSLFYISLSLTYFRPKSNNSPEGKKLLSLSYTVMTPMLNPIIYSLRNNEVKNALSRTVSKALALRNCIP
Description: (§1) Transfection was performed as described in the “hOR assay,” but 12.5 ng of 379 hOR plasmids (hOR/pBApo and hOR/pHEK) was transfected with the 12.5 ng pGlosensor^TM-22F cAMP biosensor plasmid (Promega) in 384 plates per well. After loading the GloSensor cAMP substrate and preincubation, the assay buffer was added (30 μL/well). After 10 min of equilibration, luminescence was measured (L0). Then, 50 mM n-hexanal, which was diluted with 10% DMSO/assay buffer, was added (4.7 μL/well). After 9 min, luminescence was measured (L9min). All the L9min values were subtracted by the L0 value (ΔL).

OR1A1 = biological target: T2, OR1A1 (Homo sapiens, UniProt Q9P1Q5); conditions: OR1A1, 500 μM n-hexanal, n = 1
T2 construct: Lucy tag (N); FLAG (N); Rho tag (N); expressed in transfected cells; host or cells: Flp-In T-REx-293 cells stably expressing RTP1S, Gαolf and Ric8-b
T2 sequence (Q9P1Q5 1-309): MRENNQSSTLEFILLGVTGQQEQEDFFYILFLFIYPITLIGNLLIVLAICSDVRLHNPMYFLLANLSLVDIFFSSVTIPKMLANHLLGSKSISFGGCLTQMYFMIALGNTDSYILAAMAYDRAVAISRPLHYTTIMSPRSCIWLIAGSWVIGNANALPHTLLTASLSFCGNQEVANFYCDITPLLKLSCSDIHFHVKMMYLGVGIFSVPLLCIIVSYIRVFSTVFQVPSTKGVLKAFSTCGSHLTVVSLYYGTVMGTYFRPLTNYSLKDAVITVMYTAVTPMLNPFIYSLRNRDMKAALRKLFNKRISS
Description: as §1

OR2Z1 = biological target: T3, OR2Z1 (Homo sapiens, UniProt Q8NG97); conditions: OR2Z1, 500 μM n-hexanal, with the TAR-Tat system (hOR/pHEK), n = 1
T3 construct: Lucy tag (N); FLAG (N); Rho tag (N); expressed in transfected cells; host or cells: Flp-In T-REx-293 cells stably expressing RTP1S, Gαolf and Ric8-b
T3 sequence (Q8NG97 1-314): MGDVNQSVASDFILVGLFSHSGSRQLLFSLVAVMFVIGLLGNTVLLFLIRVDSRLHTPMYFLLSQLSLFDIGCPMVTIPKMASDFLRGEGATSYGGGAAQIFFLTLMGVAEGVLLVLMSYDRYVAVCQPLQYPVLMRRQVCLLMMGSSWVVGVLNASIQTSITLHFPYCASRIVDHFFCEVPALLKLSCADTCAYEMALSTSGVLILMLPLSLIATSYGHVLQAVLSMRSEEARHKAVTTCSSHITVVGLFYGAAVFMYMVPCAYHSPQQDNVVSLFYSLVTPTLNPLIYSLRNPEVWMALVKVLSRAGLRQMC
Description: as §1

OR5K1 = biological target: T4, OR5K1 (Homo sapiens, UniProt Q8NHB7); conditions: OR5K1, 500 μM n-hexanal, with the TAR-Tat system (hOR/pHEK), n = 1
T4 construct: Lucy tag (N); FLAG (N); Rho tag (N); expressed in transfected cells; host or cells: Flp-In T-REx-293 cells stably expressing RTP1S, Gαolf and Ric8-b
T4 sequence (Q8NHB7 1-308): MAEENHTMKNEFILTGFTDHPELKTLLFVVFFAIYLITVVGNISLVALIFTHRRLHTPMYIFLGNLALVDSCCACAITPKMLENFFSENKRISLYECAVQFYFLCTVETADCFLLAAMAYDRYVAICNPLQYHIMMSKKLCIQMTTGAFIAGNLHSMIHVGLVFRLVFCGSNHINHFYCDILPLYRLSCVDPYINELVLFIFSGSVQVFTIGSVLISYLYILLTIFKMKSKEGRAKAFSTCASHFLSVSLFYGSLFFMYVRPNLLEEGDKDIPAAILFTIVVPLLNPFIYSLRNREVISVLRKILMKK
Description: as §1

OR8B4 = biological target: T5, OR8B4 (Homo sapiens, UniProt Q96RC9); conditions: OR8B4, 500 μM n-hexanal, with the TAR-Tat system (hOR/pHEK), n = 1
T5 construct: Lucy tag (N); FLAG (N); Rho tag (N); expressed in transfected cells; host or cells: Flp-In T-REx-293 cells stably expressing RTP1S, Gαolf and Ric8-b
T5 sequence (Q96RC9 1-309): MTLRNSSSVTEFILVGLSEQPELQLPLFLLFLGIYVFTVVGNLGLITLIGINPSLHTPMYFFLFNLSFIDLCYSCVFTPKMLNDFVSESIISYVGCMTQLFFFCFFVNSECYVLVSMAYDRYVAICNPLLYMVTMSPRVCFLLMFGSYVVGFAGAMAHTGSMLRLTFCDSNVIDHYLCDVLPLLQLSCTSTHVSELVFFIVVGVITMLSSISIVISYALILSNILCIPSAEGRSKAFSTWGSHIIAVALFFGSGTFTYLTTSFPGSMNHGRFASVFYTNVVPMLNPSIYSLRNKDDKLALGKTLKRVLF
Description: as §1

OR8B8 = biological target: T6, OR8B8 (Homo sapiens, UniProt Q15620); conditions: OR8B8, 500 μM n-hexanal, with the TAR-Tat system (hOR/pHEK), n = 1
T6 construct: Lucy tag (N); FLAG (N); Rho tag (N); expressed in transfected cells; host or cells: Flp-In T-REx-293 cells stably expressing RTP1S, Gαolf and Ric8-b
T6 sequence (Q15620 1-311): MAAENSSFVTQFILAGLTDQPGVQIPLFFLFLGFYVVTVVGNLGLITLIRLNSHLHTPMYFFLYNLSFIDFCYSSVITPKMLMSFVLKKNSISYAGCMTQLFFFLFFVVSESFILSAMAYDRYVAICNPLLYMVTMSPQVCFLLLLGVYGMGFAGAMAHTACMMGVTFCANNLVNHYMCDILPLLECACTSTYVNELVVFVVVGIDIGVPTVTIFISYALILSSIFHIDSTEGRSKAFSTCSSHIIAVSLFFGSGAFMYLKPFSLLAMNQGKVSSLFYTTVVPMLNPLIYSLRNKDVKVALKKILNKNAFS
Description: as §1

For `CCCCCC=O` [n-hexanal], the “response value (ΔL)” value (OR10A2) was > 500, the “response value (ΔL)” value (OR1A1; with the TAR-Tat system (hOR/pHEK)) was 6675 and the “response value (ΔL)” value (OR1A1; without the TAR-Tat system (control plasmid)) was 974. The “response value (ΔL)” value (OR2Z1) was > 500, the “response value (ΔL)” value (OR5K1) was > 500 and the “response value (ΔL)” value (OR8B4) was > 500. The “response value (ΔL)” value (OR8B8) was > 500.
